Measurements reported in US10597388B2, “Pyridazinone herbicides” (FMC CORPORATION, priority 2014, dated 2020).

Key:
Format in all cases: in vivo
soybean (Glycine max) = test: Test C greenhouse herbicide test, pre- and postemergence
Procedure, shortened: (§1)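 Each species was treated both before emergence, in a loam–sand soil mix, and after emergence, as 1- to 4-leaf seedlings in peat-based potting medium. Plants stayed in the greenhouse 13 to 15 d, then were scored from 0 (no effect) to 100 (complete control) relative to controls.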

[1] = test system: velvetleaf (Abutilon theophrasti); test: as above
Procedure, shortened: as §1

[2] = test system: ragweed (common ragweed, Ambrosia elatior); test: as above
Procedure, shortened: as §1

[3] = test system: ryegrass, Italian (Italian ryegrass, Lolium multiflorum); test: as above
Procedure, shortened: as §1

[4] = test system: barnyardgrass (Echinochloa crus-galli); test: as above
Procedure, shortened: as §1

[5] = test system: galium (catchweed bedstraw, Galium aparine); test: as above
Procedure, shortened: as §1

[6] = test system: blackgrass (Alopecurus myosuroides); test: as above
Procedure, shortened: as §1

[7] = test system: pigweed (Amaranthus retroflexus); test: as above
Procedure, shortened: as §1

[8] = test system: nutsedge, yellow (yellow nutsedge, Cyperus esculentus); test: as above
Procedure, shortened: as §1

[9] = test system: galium (catchweed bedstraw, Galium aparine); test: Test A greenhouse herbicide test, postemergence
Procedure, shortened: (§2)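 Greenhouse postemergence test: formulated chemicals sprayed on one- to two-leaf plants (2 to 10 cm), grown in loam soil blended with sand. Injury assessed visually about 10 d later against untreated controls, scored 0 (no effect) to 100 (complete control).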

[10] = test system: blackgrass (Alopecurus myosuroides); test: Test A greenhouse herbicide test, postemergence
Procedure, shortened: as §2

[11] = test system: oat, wild (wild oat, Avena fatua); test: Test C greenhouse herbicide test, postemergence
Procedure, shortened: (§3)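 Seedlings are raised in pots of peat moss–vermiculite medium with starter nutrients, then receive postemergence test chemical at the 1- to 4-leaf stage. They are kept in the greenhouse 13 to 15 d and scored visually versus controls, 0 meaning no effect and 100 complete control.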

kochia (Kochia scoparia) = test: Test C greenhouse herbicide test, postemergence
Procedure, shortened: as §3

[12] = test system: chickweed (common chickweed, Stellaria media); test: Test C greenhouse herbicide test, postemergence
Procedure, shortened: as §3

[13] = Postemergence, 31 g ai/ha, 0 to 100 scale (0 no effect, 100 complete control)
[14] = Postemergence, 125 g ai/ha, scale 0 to 100, 0 is no effect, 100 is complete control
[15] = Postemergence, 250 g ai/ha, scale 0 to 100, 0 no effect, 100 complete control, 13 to 15 d
[16] = Preemergence, 62 g ai/ha, scale 0 to 100, 0 is no effect, 100 is complete control
[17] = Preemergence, 125 g ai/ha, scale 0 to 100, 0 is no effect, 100 is complete control
[18] = Preemergence, 250 g ai/ha, scale 0 to 100, 0 no effect, 100 complete control
[19] = postemergence, 62 g ai/ha, scale 0 to 100, 0 no effect, 100 complete control
[20] = Preemergence, 31 g ai/ha, scale 0 to 100, 0 is no effect, 100 is complete control
[21] = 125 g ai/ha, visual rating after approx. 10 d, 0 to 100 scale (0 no effect, 100 complete control)
[22] = 500 g ai/ha, 0 to 100 scale, 0 is no effect, 100 is complete control

Structure (SMILES): Cc1ccc2ccccc2c1-c1c(O)c(I)nn(C)c1=O [Compound 29]
- Soybean plant response rating (soybean (Glycine max); [13]): 0
- Plant response rating, Soybean (soybean (Glycine max); [14]): 20
- Plant response rating, Soybean (soybean (Glycine max); [15]): 25
- Plant response rating, Soybean (soybean (Glycine max); [16]): 0
- Plant response rating, Soybean (soybean (Glycine max); [17]): 0
- Soybean plant response rating (soybean (Glycine max); [18]): 0
- Soybean plant response rating (soybean (Glycine max); [19]): 10
- Velvetleaf plant response rating [1, 13]: 35
- Plant response rating, Velvetleaf [1, 14]: 85
- Plant response rating, Velvetleaf [1, 15]: 90
- Plant response rating, Velvetleaf [1, 16]: 90
- Plant response rating, Velvetleaf [1, 17]: 100
- Velvetleaf plant response rating [1, 18]: 100
- Velvetleaf plant response rating [1, 19]: 80
- Ragweed plant response rating [2, 13]: 80
- Plant response rating, Ragweed [2, 14]: 95
- Plant response rating, Ragweed [2, 15]: 95
- Plant response rating, Ragweed [2, 20]: 80
- Plant response rating, Ragweed [2, 16]: 85
- Plant response rating, Ragweed [2, 17]: 85
- Ragweed plant response rating [2, 18]: 90
- Ragweed plant response rating [2, 19]: 90
- Ryegrass, Italian plant response rating [3, 13]: 70
- Plant response rating, Ryegrass, Italian [3, 14]: 85
- Plant response rating, Ryegrass, Italian [3, 15]: 95
- Plant response rating, Ryegrass, Italian [3, 20]: 90
- Plant response rating, Ryegrass, Italian [3, 16]: 90
- Plant response rating, Ryegrass, Italian [3, 17]: 90
- Ryegrass, Italian plant response rating [3, 18]: 90
- Ryegrass, Italian plant response rating [3, 19]: 80
- Barnyardgrass plant response rating [4, 13]: 15
- Plant response rating, Barnyardgrass [4, 14]: 40
- Plant response rating, Barnyardgrass [4, 15]: 40
- Plant response rating, Barnyardgrass [4, 20]: 10
- Plant response rating, Barnyardgrass [4, 16]: 35
- Plant response rating, Barnyardgrass [4, 17]: 80
- Barnyardgrass plant response rating [4, 18]: 90
- Barnyardgrass plant response rating [4, 19]: 25
- Galium plant response rating [5, 13]: 90
- Plant response rating, Galium [5, 14]: 100
- Plant response rating, Galium [5, 15]: 100
- Plant response rating, Galium [5, 20]: 95
- Plant response rating, Galium [5, 16]: 95
- Plant response rating, Galium [5, 17]: 98
- Galium plant response rating [5, 18]: 98
- Galium plant response rating [5, 19]: 95
- Blackgrass plant response rating [6, 13]: 40
- Plant response rating, Blackgrass [6, 14]: 60
- Plant response rating, Blackgrass [6, 15]: 75
- Plant response rating, Blackgrass [6, 20]: 50
- Plant response rating, Blackgrass [6, 16]: 50
- Plant response rating, Blackgrass [6, 17]: 85
- Blackgrass plant response rating [6, 18]: 85
- Blackgrass plant response rating [6, 19]: 50
- Pigweed plant response rating [7, 13]: 95
- Plant response rating, Pigweed [7, 14]: 98
- Plant response rating, Pigweed [7, 15]: 98
- Plant response rating, Pigweed [7, 20]: 100
- Plant response rating, Pigweed [7, 16]: 100
- Plant response rating, Pigweed [7, 17]: 100
- Pigweed plant response rating [7, 18]: 100
- Pigweed plant response rating [7, 19]: 95
- Nutsedge, Yellow plant response rating [8, 13]: 25
- Plant response rating, Nutsedge, Yellow [8, 15]: 75
- Plant response rating, Nutsedge, Yellow [8, 20]: 15
- Plant response rating, Nutsedge, Yellow [8, 16]: 80
- Plant response rating, Nutsedge, Yellow [8, 17]: 85
- Nutsedge, Yellow plant response rating [8, 18]: 85
- Nutsedge, Yellow plant response rating [8, 19]: 35
- Plant response rating, Galium [9, 21]: 90
- Galium plant response rating [9, 22]: 90
- Plant response rating, Blackgrass [10, 21]: 70
- Blackgrass plant response rating [10, 22]: 80
- Oat, Wild plant response rating [11, 13]: 60
- Plant response rating, Oat, Wild [11, 14]: 85
- Plant response rating, Oat, Wild [11, 15]: 95
- Oat, Wild plant response rating [11, 19]: 55
- Kochia plant response rating (kochia (Kochia scoparia); [13]): 60
- Plant response rating, Kochia (kochia (Kochia scoparia); [14]): 75
- Plant response rating, Kochia (kochia (Kochia scoparia); [15]): 85
- Kochia plant response rating (kochia (Kochia scoparia); [19]): 60
- Chickweed plant response rating [12, 13]: 95
- Plant response rating, Chickweed [12, 14]: 100
- Plant response rating, Chickweed [12, 15]: 100
- Chickweed plant response rating [12, 19]: 95
